{
  "source": "patent US10632116B2",
  "about": "“Combinations of serotonin receptor agonists for treatment of movement disorders” (Contera Pharma A/S, priority 2010, dated 2020)",
  "key": {"[1]": {"test_system": "6-OHDA unilateral lesion model rats", "experiment": "Forepaw adjusting steps (FAS), 6-OHDA induced akinesia", "format": "in vivo, rat", "conditions": "first study; acute L-DOPA 3 mg/kg with 15 mg/kg benserazide s.c.", "experimental": "Animals: 60 Sprague-Dawley male rats (290 g-340 g, bought from SLAC Laboratory Animal Co. Ltd at an age of 8-10 weeks). Rats were housed in groups of n=2/cage. […] Animal housing and testing rooms were maintained under controlled environmental conditions and were within close proximity of each other. Animal housing rooms were on a 12-hour light-dark cycle with lights on at 6:00 AM and maintained at 70° F./21° C. (range: 68-72° F./20-22° C.) with a humidity range of 20-40%. Testing rooms were maintained at 68-72° F. with a humidity range of 20-40%.\nDopamine (DA)-denervating lesions were performed by unilateral injection of 6-OHDA in the median forebrain bundle containing the ascending nigrostraital pathway. Rats were anesthetized with pentobarbital sodium 40 mg/kg (i.p.) and positioned in a stereotactic frame. 6-OHDA was injected at the following coordinates (in mm) relative to bregma and dural surface: Tooth bar: −3.3 mm, AP: −1.8 mm, ML: −2.0 mm, DV: −8.6 mm (18 μg/6 μl 6-OHDA). […]\nAfter recovery from surgery, rats with nearly complete (>90%) lesions were selected by means of an apomorphin-induced rotation test. […] Quantification of the rotational response was accomplished in rats by counting the turns in 30 minutes. […]\nEach baseline adjusting step test consisted of two subtests of the day and the mean of the two subtests were calculated as baseline. […]"}, "[2]": {"test_system": "unilaterally 6-OHDA-lesioned rats", "experiment": "L-DOPA induced AIMs and drugs screening test (6-OHDA rat model)", "format": "in vivo", "text": "Administration of L-DOPA to unilaterally 6-OHDA-lesioned rats induces abnormal involuntary movements (AIMs). These are axial, limb and oral movements that occur only on the body side that is ipsilateral to the lesion.\nAnimals: 90 experimentally-naïve, male, Sprague-Dawley rats at body weight of 200 to 250 g from Shanghai SLAC Co. Ltd. arrive at the laboratory at least 1 week prior to behavioural testing. Rats are housed in groups of n=2/cage. […] Animal housing and testing rooms are maintained under controlled environmental conditions and are within close proximity of each other. Animal housing rooms are on a 12-hour light-dark cycle with lights on at 6:00 AM and maintained at 70° F./21° C. (range: 68-72° F./20-22° C.) with a humidity range of 20-40%. Testing rooms are maintained at 68-72° F. with a humidity range of 20-40%.\nDA-denervating lesions are performed by unilateral injection of 6-OHDA in the ascending nigrostriatal pathway. Rats were anesthetized with pentobarbital sodium 40 mg/kg (i.p.) and positioned in a stereotactic frame. 6-OHDA is injected into the right ascending DA bundle at the following coordinates (in mm) relative to bregma and dural surface: (1) toothbar position −2.3, A=−4.4, L=1.2, V=7.8, (7.5 ug 6-OHDA), (2) toothbar position+3.4, A=−4.0, L=0.8, V=8.0 mm (6 ug 6-OHDA). The neurotoxin injections are performed at a rate of 1 ul/min, and the injection cannula is left in place for an additional 2-3 min thereafter. Two weeks after surgery rats with nearly complete (>90%) lesions are selected by means of an amphetamine-induced rotation test. The animals are placed in plastic Perspex bowls (30 cm in diameter) and the rotational behavior (360° turns) is recorded by an automated rotometer for 90 min after the i.p. injection of 2.5 mg/kg d-amphetamine sulphate. […] Animals are then allocated into two well-matched sub-groups (according to the amphetamine rotation) and receive daily treatment as described below.\nL-DOPA methyl ester (Sigma-Aldrich, Germany) is given at the dose of 6 mg/kg/day, combined with 15 mg/kg/day of benserazide HCl (Sigma-Aldrich, Germany). […]"}, "[3]": {"test_system": "Parkinson's disease", "conditions": "doses 10-60 mg/day; cited from earlier work"}, "[4]": {"test_system": "Sprague-Dawley (SD) rats", "experiment": "Rotarod test (Example V, sedation/motor performance)", "format": "in vivo, rat", "conditions": "FIG. 2; pentobarbital 15 mg/kg i.p., 30 min before test; positive control", "excerpt": "(§1) The present study describes the evaluation of zolmitriptan and buspirone in the 6-OHDA rat model in a study using the rotarod test. Using this study, a treatment with combination of compounds according to the present invention can be evaluated for their sedative effects, and/or their effects on the motor performance compared to sedated rats and to rats which only had saline injections.\nIn brief, the animals (30 SD male rats (180-220 g, bred in house, originally from SLAC Laboratory Animal Co. Ltd) at 9-week of age) were trained twice a day for a 3-day period. […] Each training trial was ended if the animal fell off or grips the device and spun around for two consecutive revolutions. The time that rat stayed on the Rotarod was recorded. The staying duration recorded at last training trail was used as baseline. Rats were grouped according a randomly distribution of baseline.\nFor the test session on the fourth day, the rats were evaluated on the Rotarod with the same setting as above at 30 min after dosing. The rats were dosed with drugs as described below. Dosing and Rotarod measurement were conducted by two scientists separately. Pentobarbital (15 mg/kg. i.p.) was used a as a positive control.\n(§2) Vehicle: Saline, i.p., 30 min before test, n=10\n(§3) Positive control: Pentobarbital 15 mg/kg, i.p. 30 min before test, n=10 […]\nThe data were analyzed using One-Way ANOVA and the Tukey post-hoc test."}, "[5]": {"test_system": "naïve rats", "experiment": "Open field test (Example VI, locomotor activity)", "format": "in vivo, rat", "conditions": "FIG. 3; pentobarbital 15 mg/kg i.p., 30 min before test; positive control", "excerpt": "as §1, with “model.” for “model in a study using the rotarod test.”\nThe open field test was used to determine the effects of drug on locomotor activity. Rats were put in open-field chambers (dimensions 40 cm×40 cm) 30 minutes after dosing. After a 15 minutes habituation, locomotion were recorded and analysed by Enthovision Video Tracking Software (Noldus Information Technology, Netherlands) for 60 minutes. All locomotor activities were done during dark phase and to eliminate olfactory cues, the arena was thoroughly cleaned with 70% v/v ethanol between each test.\nas §2, §3\nStatistical analysis: The total locomotor activity is expressed as total moved distance (cm) and average velocity (cm/s) during 60 minutes. The data were analysed using One-Way ANOVA and the Tukey post-hoc test. The locomotor activity in six time point is expressed as moved distance (cm) and average velocity (cm/s) every 10 minutes. The data were analysed using One-Way ANOVA and the Tukey post-hoc test in each time point."}, "[6]": {"test_system": "Huntington's disease", "conditions": "patient suffering from Huntington's disease; cited from earlier work"}, "[7]": {"test_system": "L-DOPA induced dyskinesia", "conditions": "cited from earlier work"}},
  "data": [
    {"smiles": "N[C@@H](Cc1ccc(O)c(O)c1)C(=O)O", "note": "[L-DOPA, 3,4-dihydroxyphenylalanine]", "values": [
      {"measurement": "6-OHDA induced akinesia (forelimb use)", "setting": "[1]", "value": "alleviated 6-OHDA induced akinesia"}
    ]},
    {"smiles": "O=C1CC2(CCCC2)CC(=O)N1CCCCN1CCN(c2ncccn2)CC1", "note": "[buspirone, 8-[4-(4-pyrimidin-2-ylpiperazin-1-yl)butyl]-8-azaspiro[4.5]decane-7,9-dione]", "values": [
      {"measurement": "L-DOPA induced AIM (Total AIMs)", "setting": "[2]; Example IV, FIG. 1, buspirone alone 1 mg/kg/day i.p.", "value": "only partly reduced AIM"},
      {"measurement": "L-DOPA induced AIM (Total AIMs)", "setting": "[2]; Example VII, FIG. 4, buspirone alone 0.5 mg/kg i.p.", "value": "only partly reduced AIM"},
      {"measurement": "effects on Parkinson's disease or dyskinesia", "setting": "[3]", "value": "did not have any effects"}
    ]},
    {"smiles": "CCCC(C)C1(CC)C(=O)NC(=O)NC1=O", "note": "(stereo not shown) [pentobarbital]", "values": [
      {"measurement": "rotarod performance (time spent on the accelerating rod)", "setting": "[4]", "value": "significantly reduced time spend on the rotarod"},
      {"measurement": "open field test motor performance", "setting": "[5]", "value": "significantly reduced motor performance"}
    ]},
    {"smiles": "O=C1[C@H]2CCCC[C@H]2C(=O)N1CCCCN1CCN(c2nsc3ccccc23)CC1", "note": "[perospirone, (3 aR,7aS)-2-{4-[4-(1,2-benzisothiazol-3-yl)piperazin-1-yl]butyl}hexahydro-1H-isoindole-1,3(2H)-dione]", "values": [
      {"measurement": "involuntary movement", "setting": "[6]", "value": "could reduce involuntary movement"}
    ]},
    {"smiles": "Fc1ccc(-c2cncc(CNC[C@H]3CCc4ccccc4O3)c2)cc1", "note": "[sarizotan, 1-[(2R)-3,4-dihydro-2H-chromen-2-yl]-N-([5-(4-fluorophenyl)pyridin-3-yl]-methyl)methanamine]", "values": [
      {"measurement": "LID", "setting": "[7]; phase 2A study and open labeled study", "value": "reduced LID"},
      {"measurement": "effects compared to placebo", "setting": "[7]; several large phase 2b studies", "value": "no significant effects"}
    ]},
    {"smiles": "CN(C)CCc1c[nH]c2ccc(C[C@H]3COC(=O)N3)cc12", "note": "[zolmitriptan, (S)-4-([3-[2-(dimethylamino)ethyl]-1H-indol-5-yl]methyl)-1,3-oxazolidin-2-one]", "values": [
      {"measurement": "L-DOPA induced AIM (Total AIMs)", "setting": "[2]; Example IV, FIG. 1, zolmitriptan alone 10 mg/kg/day", "value": "did not reduce AIM"}
    ]}
  ]
}
